For twelve compounds, IC50 and melting point results are on record in patent US6667335B2, “Imidazole derivatives” (Hoffmann-La Roche Inc., priority 2001, dated 2003).

Structures are written as SMILES. Bounds are passed on as bounds.

In one series the target is T1, NMDA-receptor subtype 2B (Rattus norvegicus, UniProt P35439+Q00960).
T1 construct: Membranes were prepared by homogenization of the whole brain minus cerebellum and medulla oblongata; from tissue; host or cells: rat whole brain minus cerebellum and medulla oblongata, membrane preparation
T1 sequence (Q00960 27-1482, other chains not shown): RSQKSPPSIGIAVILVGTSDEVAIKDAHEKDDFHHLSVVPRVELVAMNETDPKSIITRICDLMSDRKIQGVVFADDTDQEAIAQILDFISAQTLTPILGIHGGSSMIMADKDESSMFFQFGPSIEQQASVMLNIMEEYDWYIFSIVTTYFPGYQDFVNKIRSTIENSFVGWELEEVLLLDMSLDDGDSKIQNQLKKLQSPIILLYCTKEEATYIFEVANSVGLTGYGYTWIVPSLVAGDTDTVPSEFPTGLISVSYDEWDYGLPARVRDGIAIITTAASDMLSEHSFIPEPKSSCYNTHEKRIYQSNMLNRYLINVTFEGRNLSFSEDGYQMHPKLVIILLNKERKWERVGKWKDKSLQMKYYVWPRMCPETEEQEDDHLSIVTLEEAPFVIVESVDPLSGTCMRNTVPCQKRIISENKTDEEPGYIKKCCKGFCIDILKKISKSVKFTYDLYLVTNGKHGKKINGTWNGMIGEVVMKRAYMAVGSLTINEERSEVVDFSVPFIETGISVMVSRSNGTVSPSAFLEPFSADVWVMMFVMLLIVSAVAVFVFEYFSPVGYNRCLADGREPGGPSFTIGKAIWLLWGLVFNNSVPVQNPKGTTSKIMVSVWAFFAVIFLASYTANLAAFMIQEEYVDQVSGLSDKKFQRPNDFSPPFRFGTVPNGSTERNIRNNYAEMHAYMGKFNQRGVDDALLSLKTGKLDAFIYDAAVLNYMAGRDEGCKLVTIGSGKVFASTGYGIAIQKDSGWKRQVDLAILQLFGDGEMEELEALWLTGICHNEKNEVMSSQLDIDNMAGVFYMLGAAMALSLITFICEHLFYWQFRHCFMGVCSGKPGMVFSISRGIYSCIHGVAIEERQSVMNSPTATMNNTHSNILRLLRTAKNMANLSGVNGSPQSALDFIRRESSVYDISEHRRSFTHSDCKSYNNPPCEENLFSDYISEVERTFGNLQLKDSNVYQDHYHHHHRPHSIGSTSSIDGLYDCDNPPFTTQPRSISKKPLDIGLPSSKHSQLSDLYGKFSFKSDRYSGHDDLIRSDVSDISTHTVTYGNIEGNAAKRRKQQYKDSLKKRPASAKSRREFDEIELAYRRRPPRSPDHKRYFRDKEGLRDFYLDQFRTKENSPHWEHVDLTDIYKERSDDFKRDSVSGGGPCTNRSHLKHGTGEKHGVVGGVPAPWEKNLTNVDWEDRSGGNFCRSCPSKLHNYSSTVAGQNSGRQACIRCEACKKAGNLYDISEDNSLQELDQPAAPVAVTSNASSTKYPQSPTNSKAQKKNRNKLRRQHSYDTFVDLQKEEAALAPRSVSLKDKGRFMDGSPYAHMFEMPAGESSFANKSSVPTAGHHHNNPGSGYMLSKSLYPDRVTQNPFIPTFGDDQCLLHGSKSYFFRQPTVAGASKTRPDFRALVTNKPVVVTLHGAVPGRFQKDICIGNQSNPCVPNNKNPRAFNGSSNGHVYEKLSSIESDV
Put plainly: 3H-Ro 25-6981 binding (displacement) on rat brain membranes. The conditions noted are these: displacement of 5 nM 3H-Ro 25-6981, rat whole brain membranes (minus cerebellum and medulla oblongata), 2 hours at 4° C.

A word on the IC50: it is the point on the concentration scale where inhibition reaches its midpoint. Low values mean greater potency, high ones weaker potency. One may read the melting point as the temperature of the solid-liquid transition.

Turning to `CCNc1nccn1Cc1cn(-c2ccc(Cl)c(Cl)c2)cn1.Cl.Cl` [Example 111, {1-[1-(3,4-Dichloro-phenyl)-1H-imidazol-4-yl-methyl]-1H-imidazol-2-yl}-ethyl-amine Hydrochloride (1:2)], the melting point is more than 250 °C. The same compound yielded an IC50 on NMDA-receptor subtype 2B of 11 nM.

In turn, `C=Cc1cccc(-n2cnc(Cn3ccnc3C)c2)c1.Cl.Cl` [Example 172, 1H-Imidazole, 2-Methyl-1-[[1-(3-vinylphenyl)-1H-imidazol-4-yl]methyl]-, Hydrochloride (1:2)] had a melting point of 207 to 208 °C. The half-inhibitory concentration (IC50) on NMDA-receptor subtype 2B turned out to be 24 nM.

The compound `Cc1nccn1Cc1cn(-c2ccc(F)c(Br)c2)cn1.Cl.Cl` [Example 157, 1H-Imidazole, 1-[[1-(3-Bromo-4-fluorophenyl)-1H-imidazol-4-yl]methyl]-2-methyl-, Hydrochloride (1:2)] gave a melting point of 232 to 233 °C. On NMDA-receptor subtype 2B, this compound showed an IC50 of 14 nM.

Regarding `Cc1cc(-n2cnc(Cn3ccnc3)c2)ccc1Cl.Cl.Cl` [Example 12, 1H-Imidazole, 1-(4-Chloro-3-methylphenyl)-4-(1H-imidazol-1-yl-methyl)-, Hydrochloride (1:2)], the melting point lay within 206 to 207 °C. In addition, at NMDA-receptor subtype 2B, the IC50 worked out at 8 nM.

As to `Cc1nccn1Cc1cn(-c2ccc3c(c2)OCO3)cn1.Cl.Cl` [Example 52, 1H-Imidazole, 1-[[1-(1,3-Benzodioxol-5-yl)-1H-imidazol-4-yl]methyl]-2-methyl-, Hydrochloride (1:2)], the melting point was more than 250 °C. At NMDA-receptor subtype 2B, this compound returned an IC50 of 78 nM.

The compound `CCc1nccn1Cc1cn(-c2ccc(OC)c(Cl)c2)cn1.Cl.Cl` [Example 58, 1H-Imidazole, 1-[[1-(3-Chloro-4-methoxyphenyl)-1H-imidazol-4-yl]methyl]-2-ethyl-, Hydrochloride (1:2)] yielded a melting point of 220 to 221 °C. The IC50 at NMDA-receptor subtype 2B amounted to 93 nM.

The compound `Cc1nccn1Cc1cn(-c2ccc(F)c(Cl)c2)cn1.Cl.Cl` [Example 93, 1H-Imidazole, 1-[[1-(3-Chloro-4-fluorophenyl)-1H-imidazol-4-yl]methyl]-2-methyl-, Hydrochloride (1:2)] gave a melting point of 224 to 225 °C. The compound further showed an IC50 at NMDA-receptor subtype 2B of 20 nM.

Consider `Cc1nccn1Cc1cn(-c2cccc(I)c2)cn1.Cl.Cl` [Example 176, 1H-Imidazole, 1-[[1-(3-Iodophenyl)-1H-imidazol-4-yl]methyl]-2-methyl-, Hydrochloride (1:2)], for which the melting point is > 222 °C (dec.). Also, the IC50 at NMDA-receptor subtype 2B came out at 32 nM.

For `Cc1ccc(-n2cnc(Cn3ccnc3C)c2)cc1C(F)(F)F.Cl.Cl` [Example 39, 1H-Imidazole, 2-Methyl-1-[[1-[4-methyl-3-(trifluoromethyl)phenyl]-1H-imidazol-4-yl]methyl]-, Hydrochloride (1:2)], the melting point is > 235 °C (dec.). The IC50 at NMDA-receptor subtype 2B was 43 nM.

As for `CCc1nccn1Cc1cn(-c2ccc(F)c(Br)c2)cn1.Cl.Cl` [Example 156, 1H-Imidazole, 1-[[1-(3-Bromo-4-fluorophenyl)-1H-imidazol-4-yl]methyl]-2-ethyl-, Hydrochloride (1:2)], the melting point is 238 to 239 °C. At NMDA-receptor subtype 2B, this compound had an IC50 of 14 nM.

Consider `CCc1nccn1Cc1cn(-c2cccc(OC(F)F)c2)cn1.Cl.Cl` [Example 189, 1H-Imidazole, 1-[[1-[3-(Difluoromethoxy)phenyl]-1H-imidazol-4-yl]methyl]-2-ethyl-, Hydrochloride (1:2)], for which the melting point is 216 to 217 °C. For the same compound, the IC50 at NMDA-receptor subtype 2B worked out at 53 nM.

Consider `CCc1nccn1Cc1cn(-c2cccc(SC)c2)cn1.Cl.Cl` [Example 166, 1H-Imidazole, 2-Ethyl-1-[[1-[3-(methylthio)phenyl]-1H-imidazol-4-yl]methyl]-, Hydrochloride (1:2)], for which the melting point is > 200 °C (dec.). The IC50 on NMDA-receptor subtype 2B was 20 nM.
